Source: patent US20190100534A1, “Cephem Compounds with Latent Reactive Groups” (Gladius Pharmaceuticals, Inc., priority 2017, published 2019)

Columns and labels:
Test in all cases: MIC determination
[1] = test system: EA (URMC -3); type: cell-based; details: CAMH broth, 20 μM Apo-Transferrin, 37° C., 18 hours
Procedure: (§1) Sterile technique was used throughout these experiments. Suspensions of organisms were removed from storage (−80° C.) and partially thawed. Partially thawed organisms (1 μL) were inoculated into 3 mL sterile LB Broth in a sterile culture tube and capped, then cultured at 37° C. with shaking for 4-5 hours until the optical density at 600 nm (OD600) was greater than 0.1 on a single beam spectrophotometer.
(§2) The concentration of organisms was adjusted to 0.08-0.1 OD600 (0.5 McFarland units) by dilution with sterile cation-adjusted Meuller-Hinton (CAMH) broth. The suspensions were used within 30 minutes of preparation.
(§3) A stock solution was made of each test compound by measuring 6.4 mg of the compound on an analytical balance and dissolving it in DMSO (1 mL) to get a transparent solution. The solutions were stored at −20° C. and thawed prior to use.
(§4) Sterile CAMH broth (200 μL) containing 20 μM Apo-Transferrin was pipetted into the first row of 8 columns of a sterile, round-bottomed, transparent, 96-well microplate using an 8-channel pipette equipped with sterile tips. One hundred μL was pipetted into the wells of the remaining 11 rows.
To each well of the first row was pipetted 2.0 μL of the 6.4 mg/mL stock test compound stock solution to give 1:100 dilutions and a final concentration of 64 μg/mL and mixed.
(§5) With an 8-channel pipette equipped with sterile tips, 100 μL of the first row solution was transferred to the second row and mixed. The process was repeated for the second to third rows and continued through row 11. One hundred μL from row 11 was removed and discarded so that all 12 rows contained 100 μL. Row 12 contained no compound and rows 1-11 contained 64, 32, 16, 8, 4, 2, 1, 0.5, 0.25, 0.125, […] of a given compound.
(§6) Inoculant suspensions (0.5 μL) were added to the 12 wells of each column. The plates were then covered and incubated at 37° C. overnight for 18 hours.
(§7) For each organism the MIC was determined by identifying the transparent well with the lowest test compound concentration.

[2] = test system: CF (RR -1); type: cell-based, Citrobacter freundii; details: CAMH broth, 20 μM Apo-Transferrin, 37° C., 18 hours
Procedure: as §1, §2, §3, §4, §5, §6, §7

[3] = test system: ENC (ATCC NDM-1); type: cell-based, Enterobacter cloacae; details: CAMH broth, 20 μM Apo-Transferrin, 37° C., 18 hours
Procedure: as §1, §2, §3, §4, §5, §6, §7

[4] = test system: A. baumannii; type: cell-based, Acinetobacter baumannii
Procedure: as §1, §2, §3, §4, §5, §6, §7

[5] = test system: A. baumannii (JMI OXA-58); type: cell-based, Acinetobacter baumannii; details: class D carbapenemase producer, CAMH broth, 20 μM Apo-Transferrin, 37° C., 18 hours
Procedure: as §1, §2, §3, §4, §5, §6, §7

[6] = test system: PM (RR -1); type: cell-based, Proteus mirabilis; details: CAMH broth, 20 μM Apo-Transferrin, 37° C., 18 hours
Procedure: as §1, §2, §3, §4, §5, §6, §7

[7] = test system: KP (URMC-1); type: cell-based, Klebsiella pneumoniae; details: CAMH broth, 20 μM Apo-Transferrin, 37° C., 18 hours
Procedure: as §1, §2, §3, §4, §5, §6, §7

[8] = test system: KP (RR -1); type: cell-based, Klebsiella pneumoniae; details: CAMH broth, 20 μM Apo-Transferrin, 37° C., 18 hours
Procedure: as §1, §2, §3, §4, §5, §6, §7

[9] = test system: KP (URMC-2); type: cell-based, Klebsiella pneumoniae; details: CAMH broth, 20 μM Apo-Transferrin, 37° C., 18 hours
Procedure: as §1, §2, §3, §4, §5, §6, §7

[10] = test system: KP (GJ 5659 TEM-26); type: cell-based, Klebsiella pneumoniae; details: CAMH broth, 20 μM Apo-Transferrin, 37° C., 18 hours
Procedure: as §1, §2, §3, §4, §5, §6, §7

[11] = test system: KP (ATCC KPC-3); type: cell-based, Klebsiella pneumoniae; details: CAMH broth, 20 μM Apo-Transferrin, 37° C., 18 hours
Procedure: as §1, §2, §3, §4, §5, §6, §7

[12] = test system: KP (URMC-3); type: cell-based, Klebsiella pneumoniae; details: CAMH broth, 20 μM Apo-Transferrin, 37° C., 18 hours
Procedure: as §1, §2, §3, §4, §5, §6, §7

[13] = test system: EC (RR -2); type: cell-based, Escherichia coli; details: CAMH broth, 20 μM Apo-Transferrin, 37° C., 18 hours
Procedure: as §1, §2, §3, §4, §5, §6, §7

[14] = test system: EC(JMI OXA-48); type: cell-based, Escherichia coli; details: CAMH broth, 20 μM Apo-Transferrin, 37° C., 18 hours
Procedure: as §1, §2, §3, §4, §5, §6, §7

[15] = test system: EC(KB1 CTX-M-15); type: cell-based, Escherichia coli; details: CAMH broth, 20 μM Apo-Transferrin, 37° C., 18 hours
Procedure: as §1, §2, §3, §4, §5, §6, §7

[16] = test system: EC (URMC-1); type: cell-based, Escherichia coli; details: CAMH broth, 20 μM Apo-Transferrin, 37° C., 18 hours
Procedure: as §1, §2, §3, §4, §5, §6, §7

[17] = test system: EC (URMC-2); type: cell-based, Escherichia coli; details: CAMH broth, 20 μM Apo-Transferrin, 37° C., 18 hours
Procedure: as §1, §2, §3, §4, §5, §6, §7

[18] = test system: EC (URMC-3); type: cell-based, Escherichia coli; details: CAMH broth, 20 μM Apo-Transferrin, 37° C., 18 hours
Procedure: as §1, §2, §3, §4, §5, §6, §7

[19] = test system: EC (RR -1); type: cell-based, Escherichia coli; details: CAMH broth, 20 μM Apo-Transferrin, 37° C., 18 hours
Procedure: as §1, §2, §3, §4, §5, §6, §7

[20] = test system: EC(ATCC NDM-1); type: cell-based, Escherichia coli; details: CAMH broth, 20 μM Apo-Transferrin, 37° C., 18 hours
Procedure: as §1, §2, §3, §4, §5, §6, §7

[21] = test system: EC(KB2 CTX-M-15); type: cell-based, Escherichia coli; details: CAMH broth, 20 μM Apo-Transferrin, 37° C., 18 hours
Procedure: as §1, §2, §3, §4, §5, §6, §7

[22] = test system: Pseudomonas aeruginosa PA (RR-2); type: cell-based; details: PA (RR-2); CAMH broth, 20 μM Apo-Transferrin, 37° C., 18 hours
Method in brief: (§8)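 Growth inhibition was judged by well clarity after 18 h at 37 °C in transferrin-supplemented (20 μM apo form) CAMH. Standardized suspensions (0.08-0.1 OD600) were added within 30 min of preparation.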

[23] = test system: Pseudomonas aeruginosa PA-RR-(98023895); type: cell-based; details: PA-RR-(98023895); CAMH broth, 20 μM Apo-Transferrin, 37° C., 18 hours
Method in brief: as §8

[24] = test system: Pseudomonas aeruginosa PA (URMC-2); type: cell-based; details: PA (URMC-2); CAMH broth, 20 μM Apo-Transferrin, 37° C., 18 hours
Method in brief: as §8

[25] = test system: Pseudomonas aeruginosa PA-RR-(980151052); type: cell-based; details: PA-RR-(980151052); CAMH broth, 20 μM Apo-Transferrin, 37° C., 18 hours
Method in brief: as §8

[26] = test system: Pseudomonas aeruginosa PA-RR-(purple Fre D); type: cell-based; details: CAMH broth, 20 μM Apo-Transferrin, 37° C., 18 hours
Method in brief: as §8

[27] = test system: Pseudomonas aeruginosa PA-RR-(G7305586); type: cell-based; details: PA-RR-(G7305586); CAMH broth, 20 μM Apo-Transferrin, 37° C., 18 hours
Method in brief: as §8

Structure (SMILES): CC(C)(O/N=C(\C(=O)N[C@@H]1C(=O)N2C(C(=O)O)=C(C=Cc3ccc(C[n+]4ccc5cc(O)c(O)cc5c4)cc3)CS[C@H]12)c1csc(N)n1)C(=O)O (mixture of isomers) [Compound 435, 2-(4-((E/Z)-2-((6R,7R)-7-((Z)-2-(2-aminothiazol-4-yl)-2-(((2-carboxypropan-2-yl)oxy)imino)acetamido)-2-carboxy-8-oxo-5-thia-1-azabicyclo[4.2.0]oct-2-en-3-yl)vinyl)benzyl)-6,7-dihydroxyisoquinolin-2-ium]
- Mimimum Inhibitory Concentrations, EA (URMC -3) [1]: 0.5 microgram/mL
- Mimimum Inhibitory Concentrations, CF (RR -1) [2]: ≤0.06 microgram/mL
- Mimimum Inhibitory Concentrations, ENC (ATCC NDM-1) [3]: >64 microgram/mL
- Minimum Inhibitory Concentrations, A. baumannii ([4]; A. baumannii, CAMH broth, 20 μM Apo-Transferrin, 37° C., 18 hours): 1 microgram/mL
- MICs for an Acinetobacter baumannii strain, in words ([4]; review of Table 2): low microgram/mL MICs
- Minimum Inhibitory Concentrations, A. baumannii (JMI OXA-58) [5]: >64 microgram/mL
- Mimimum Inhibitory Concentrations, PM (RR -1) [6]: ≤0.06 microgram/mL
- Minimum Inhibitory Concentrations, KP (URMC-1) [7]: ≤0.06 microgram/mL
- Mimimum Inhibitory Concentrations, KP (RR -1) [8]: ≤0.06 microgram/mL
- Minimum Inhibitory Concentrations, KP (URMC-2) [9]: ≤0.06 microgram/mL
- Minimum Inhibitory Concentrations, KP (GJ 5659 TEM-26) [10]: 0.13 microgram/mL
- Minimum Inhibitory Concentrations, KP (ATCC KPC-3) [11]: >64 microgram/mL
- Minimum Inhibitory Concentrations, KP (URMC-3) [12]: ≤0.06 microgram/mL
- Mimimum Inhibitory Concentrations, EC (RR -2) [13]: ≤0.06 microgram/mL
- Minimum Inhibitory Concentrations, EC(JMI OXA-48) [14]: 0.5 microgram/mL
- Minimum Inhibitory Concentrations, EC(KB1 CTX-M-15) [15]: 0.13 microgram/mL
- Minimum Inhibitory Concentrations, EC (URMC-1) [16]: ≤0.06 microgram/mL
- Minimum Inhibitory Concentrations, EC (URMC-2) [17]: ≤0.06 microgram/mL
- Minimum Inhibitory Concentrations, EC (URMC-3) [18]: 0.5 microgram/mL
- Mimimum Inhibitory Concentrations, EC (RR -1) [19]: ≤0.06 microgram/mL
- Minimum Inhibitory Concentrations, EC(ATCC NDM-1) [20]: >64 microgram/mL
- Minimum Inhibitory Concentrations, EC(KB2 CTX-M-15) [21]: 0.5 microgram/mL
- Minimum Inhibitory Concentrations, PA (RR-2) [22]: ≤0.06 microgram/mL
- Minimum Inhibitory Concentrations, PA-RR-(98023895) [23]: 1 microgram/mL
- Minimum Inhibitory Concentrations, PA (URMC-2) [24]: 0.25 microgram/mL
- Minimum Inhibitory Concentrations, PA-RR-(980151052) [25]: 0.13 microgram/mL
- Minimum Inhibitory Concentrations, PA-RR-(purple Fre D) [26]: 0.5 microgram/mL
- Minimum Inhibitory Concentrations, PA-RR-(G7305586) [27]: 0.25 microgram/mL
